Source: patent US20230346827A1 (priority 2020, published 2023)
Marks after values point to notes of the source that are not given here.

Tested on: rats subjected to sTBI
Assay: sTBI rats, LMW-DS 15 mg/kg s.c.: HPLC of brain purine-pyrimidine/energy metabolites (Example 3)
Type: in vivo, rat
Procedure: The experimental protocol used in this study was approved by the Ethical Committee of the Catholic University of Rome, according to international standards and guidelines for animal care. Male Wistar rats of 300-350 g body weight (b.w.) were fed with standard laboratory diet and water ad libitum in a controlled environment.
They were divided into three groups: • 1) n = 6 animals subjected to sTBI, with drug administration after 30 minutes and sacrifice at 2 days post-TBI (Acute phase 1) • 2) n= 6 animals subjected to sTBI, with drug administration after 30 minutes and sacrifice at 7 days post-TBI (Acute phase 2). • 3) n= 6 animals subjected to sTBI, with drug administration after 3 days and sacrifice at 7 days post-TBI (Chronic phase).
As the anesthetic mixture, animals received 35 mg/kg b.w. ketamine and 0.25 mg/kg b.w. midazolam by i.p. injection. sTBI was induced by dropping a 450 g weight from 2 m height on to the rat head that had been protected by a metal disk previously fixed on the skull, according to the “weight drop” impact acceleration model (Marmarou et al., J Neurosurg. 1994; 80: 291-300). […] At the end of each period of treatment, rats were anesthetized again and then immediately sacrificed.
The drug treatment was a subcutaneous injection of 0.5 ml of LMW-DS (ILB®, Tikomed AB, Viken, Sweden, WO 2016/076780; 15 mg/kg) and administered according to the aforementioned schematic protocol.
An in vivo craniectomy was performed in all animals during anesthesia, after carefully removing the rat’s skull, the brain was exposed and removed with a surgical spatula and quickly dropped in liquid nitrogen. After the wet weight (w.w.) determination, tissue preparation was affected as previously disclosed (Tavazzi et al., Neurosurgery. 2005; 56: 582-589; Vagnozzi et al., Neurosurgery. 2007; 61: 379-388; Tavazzi et al., Neurosurgery. 2007; 61: 390-395; Amorini et al., J Cell Mol Med. 2017; 21: 530-542.). Briefly, whole brain homogenization was performed with 7 ml of ice-cold, nitrogen-saturated, precipitating solution composed by CH3CN + 10 mM KH2PO4, pH 7.40, (3:1; v:v), and using an Ultra-Turrax set at 24,000 rpm/min (Janke & Kunkel, Staufen, Germany). After centrifugation at 20,690 x g, for 10 min at 4° C., the clear supernatants were saved, pellets were supplemented with 3 ml of the precipitating solution and homogenized again as described above. A second centrifugation was performed (20,690 x g, for 10 min at 4° C.), pellets were saved, supernatants combined with those previously obtained, extracted by vigorous agitation with a double volume of HPLC-grade CHCl3 and centrifuged as above. The upper aqueous phases containing water-soluble low-molecular weight compounds were collected, subjected to chloroform washings for two more times (this procedure allowed the removal of all the organic solvent and of any lipid soluble compound from the buffered tissue extracts), adjusted in volumes with 10 mM KH2PO4, pH 7.40, to have ultimately aqueous 10% tissue homogenates and saved at -80° C. until assayed.
Aliquots of each deproteinized tissue samples were filtered through a 0.45 µm HV Millipore filter and loaded (200 µl) onto a Hypersil C-18, 250 × 4.6 mm, 5 µm particle size column, provided with its own guard column (Thermo Fisher Scientific, Rodano, Milan, Italy) and connected to an HPLC apparatus consisting of a Surveyor System (Thermo Fisher Scientific, Rodano, Milan, Italy) with a highly sensitive diode array detector (equipped with a 5 cm light path flow cell) and set up between 200 and 300 nm wavelength. Data acquisition and analysis were performed by a PC using the ChromQuest® software package provided by the HPLC manufacturer. […]

[1] = Acute phase 1: drug 30 min, sacrifice 2 d post-TBI
[2] = Acute phase 2: drug 30 min, sacrifice 7 d post-TBI
[3] = Chronic phase: drug 3 d, sacrifice 7 d post-TBI
[4] = after administration of LMW-DS 15 mg/kg

sodium salt of dextran sulfate [LMW-DS] was tested, and the ASCORBIC ACID [1] was 3733.10±277.88^a,d nmol/g (w.w.), the CDP choline [1] was 10.93±3.22^b,h nmol/g (w.w.) and the CMP [1] was 30.12±9.97^a,h nmol/g (w.w.). For the same substance, the CREATININE [1] was 24.55±3.20^b,g,i nmol/g (w.w.), the CYTIDINE [1] was 15.40 ± 3.04 nmol/g (w.w.) and the CYTOSINE [1] was 17.69±2.50^b,d nmol/g (w.w.). For the same substance, the GSH [1] was 2649.50±397.31^a,d nmol/g (w.w.), the GUANINE [1] was 4.80±1.24^b nmol/g (w.w.) and the GUANOSINE [1] was 20.71 ± 5.66 nmol/g (w.w.). The HYPOXANTHINE [1] was 14.47±2.87^a nmol/g (w.w.), the INOSINE [1] was 92.55±31.20^c nmol/g (w.w.) and the MDA [1] was 12.47±2.09^a,c,g nmol/g (w.w.). The NO2 [1] was 216.03±41.74^a nmol/g (w.w.), the URACIL [1] was 14.56 ± 5.44 nmol/g (w.w.) and the URIC ACID [1] was 23.62±3.77^a,d,h nmol/g (w.w.). For the same substance, the URIDINE [1] was 76.35±12.85^a,c nmol/g (w.w.), the XANTHINE [1] was 9.46±2.34^d nmol/g (w.w.) and the adenine [1] was 44.82±6.31 ^a,d,g nmol/g (w.w.). For the same substance, the thymidine [1] was 0.69 ± 0.11 nmol/g (w.w.), the β-PSEUDOURIDINE [1] was 6.65±1.30^g,i nmol/g (w.w.) and the ASCORBIC ACID [2] was 3512.58±224.62^a,e nmol/g (w.w.). The CDP choline [2] was 6.91 ± 1.86 nmol/g (w.w.), the CMP [2] was 15.68±2.12^f,j nmol/g (w.w.) and the CREATININE [2] was 37.27±5.82^a,e,j nmol/g (w.w.). For the same substance, the CYTIDINE [2] was 16.18±4.21^e nmol/g (w.w.), the CYTOSINE [2] was 15.70±4.10^f nmol/g (w.w.) and the GSH [2] was 2821.50±242.82^a,e nmol/g (w.w.). The GUANINE [2] was 4.73 ± 1.07 nmol/g (w.w.), the GUANOSINE [2] was 17.90±3.24^j nmol/g (w.w.) and the HYPOXANTHINE [2] was 12.90±2.58^a,j nmol/g (w.w.). The INOSINE [2] was 85.52±20.36^e nmol/g (w.w.), the MDA [2] was 4.82±1.73^a,e,i nmol/g (w.w.) and the NO2 [2] was 226.40±30.95^b nmol/g (w.w.). The URACIL [2] was 19.40±7.52^a,e nmol/g (w.w.), the URIC ACID [2] was 19.17±2.15^a,h,i nmol/g (w.w.) and the URIDINE [2] was 63.02±9.66^b,e nmol/g (w.w.). The XANTHINE [2] was 10.41±2.11^f nmol/g (w.w.), the adenine [2] was 58.16±6.36^a,f nmol/g (w.w.) and the thymidine [2] was 0.49±0.20^f nmol/g (w.w.). The β-PSEUDOURIDINE [2] was 13.26±3.16^a,e,j nmol/g (w.w.), the ASCORBIC ACID [3] was 3375.03±856.41 ^a,e nmol/g (w.w.) and the CDP choline [3] was 8.37 ± 2.19 nmol/g (w.w.). For the same substance, the CMP [3] was 20.51±3.73^a,f nmol/g (w.w.), the CREATININE [3] was 51.25±10.17^a,f nmol/g (w.w.) and the CYTIDINE [3] was 14.71±2.83^e nmol/g (w.w.). For the same substance, the CYTOSINE [3] was 15.58±2.50^b,f nmol/g (w.w.), the GSH [3] was 2608.67±358.07^a,e nmol/g (w.w.) and the GUANINE [3] was 5.31±1.04^b nmol/g (w.w.). For the same substance, the GUANOSINE [3] was 28.87±7.60^a,f nmol/g (w.w.), the HYPOXANTHINE [3] was 17.97±4.49^a nmol/g (w.w.) and the INOSINE [3] was 105.81±25.57^f nmol/g (w.w.). The MDA [3] was 11.62±3.90^a,e nmol/g (w.w.), the NO2 [3] was 217.67±55.04^a nmol/g (w.w.) and the URACIL [3] was 16.57±2.99^a f nmol/g (w.w.). For the same substance, the URIC ACID [3] was 27.77±3.60^a nmol/g (w.w.), the URIDINE [3] was 63.28±3.37^f nmol/g (w.w.) and the XANTHINE [3] was 9.35±0.83^f nmol/g (w.w.). For the same substance, the adenine [3] was 52.94±8.59^a,f nmol/g (w.w.), the thymidine [3] was 0.71 ± 0.11 nmol/g (w.w.) and the β-PSEUDOURIDINE [3] was 18.62±2.80^a nmol/g (w.w.). The nitrate concentrations (acute and chronic phases of sTBI) was “significantly decreased”, the MDA levels [4] was “significant reduction” and the “ascorbic acid and GSH levels” value [4] was “significant improvement”. For the same substance, the “NAA and its substrates, levels” value (after sTBI, LMW-DS 15 mg/kg) was “significant improvements”.
